Data as given in ChEMBL document CHEMBL1201862, “PubChem BioAssay data set” (2004).
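A five-concentration, 48-hour dose response in 96-well plates underlies each endpoint, interpolated linearly between surrounding concentrations. Here, GI50 denotes the concentration required for 50% inhibition of growth.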 Activity calls are given as the source filed them. No stated cut-off is given here; in the data, active = GI50 up to about 1.1 µM and inactive = higher.

Columns and labels:
Assay in all cases: DTP human tumour cell line panel, 48 h
[1] = system: A549
[2] = system: CCRF-CEM
[3] = system: COLO 205
[4] = system: DU-145
[5] = system: HCT-116
[6] = system: HOP-62
[7] = system: KM12
[8] = system: MDA-MB-231
[9] = system: MOLT-4
[10] = system: Malme-3M
[11] = system: NCI-H226
[12] = system: NCI-H522
[13] = system: NCI/ADR-RES
[14] = system: OVCAR-3
[15] = system: SF-295
[16] = system: SK-OV-3
[17] = system: SNB-19
[18] = system: U-251
[19] = system: UACC-62

Compound	GI50 [1]	GI50 [2]	GI50 [3]	GI50 [4]	GI50 [5]	GI50 [6]	GI50 [7]	GI50 [8]	GI50 [9]	GI50 [10]	GI50 [11]	GI50 [12]	GI50 [13]	GI50 [14]	GI50 [15]	GI50 [16]	GI50 [17]	GI50 [18]	GI50 [19]
CN(C)CCCNc1c(C#N)[n+]([O-])c2cc(Cl)ccc2[n+]1[O-]	7.67 µM (inactive)	3.21 µM (inactive)	4.84 µM (inactive)	21.2 µM (inactive)	7.18 µM (inactive)	11.4 µM (inactive)	7.73 µM (inactive)	10.4 µM (inactive)	1.18 µM (inactive)	3.85 µM (inactive)	12.4 µM (inactive)	3.1 µM (inactive)	13.2 µM (inactive)	5.68 µM (inactive)	10.6 µM (inactive)	18.3 µM (inactive)	26.2 µM (inactive)	15.2 µM (inactive)	5.48 µM (inactive)
COc1cc(/C=C2\CCC/C(=C\c3cc(OC)c(O)c(OC)c3)C2=O)cc(OC)c1O	1.67 µM (inactive)	0.43 µM (active)	9.38 µM (inactive)	2.39 µM (inactive)	1.32 µM (inactive)	1.8 µM (inactive)	1.38 µM (inactive)	2.71 µM (inactive)	4.38 µM (inactive)	1.51 µM (inactive)	10.4 µM (inactive)	1.53 µM (inactive)	2.19 µM (inactive)	1.07 µM (active)	2.03 µM (inactive)	1.81 µM (inactive)	1.81 µM (inactive)	1.36 µM (inactive)	1.38 µM (inactive)
CCn1ncc2c(=O)n3ncn(-c4ccc(Br)cc4)c3nc21	> 100 µM (inactive)	> 100 µM (inactive)	> 100 µM (inactive)	> 100 µM (inactive)	> 100 µM (inactive)	> 100 µM (inactive)	> 100 µM (inactive)	> 100 µM (inactive)	> 100 µM (inactive)	> 100 µM (inactive)	> 100 µM (inactive)	> 100 µM (inactive)	> 100 µM (inactive)	> 100 µM (inactive)	> 100 µM (inactive)	> 100 µM (inactive)	> 100 µM (inactive)	> 100 µM (inactive)	> 100 µM (inactive)
Cc1nc2c(sc3nc4ccccc4n32)c(=O)[nH]1	> 100 µM (inactive)	> 100 µM (inactive)	> 100 µM (inactive)	> 100 µM (inactive)	> 100 µM (inactive)	> 100 µM (inactive)	> 100 µM (inactive)	> 100 µM (inactive)	> 100 µM (inactive)	> 100 µM (inactive)	> 100 µM (inactive)	> 100 µM (inactive)	> 100 µM (inactive)	> 100 µM (inactive)	> 100 µM (inactive)	73.1 µM (inactive)	> 100 µM (inactive)	> 100 µM (inactive)	> 100 µM (inactive)
COC(=O)C1Cc2c(C)cccc2C1=O (stereo not given)	> 100 µM (inactive)	41.3 µM (inactive)	> 100 µM (inactive)	> 100 µM (inactive)	> 100 µM (inactive)	> 100 µM (inactive)	> 100 µM (inactive)	> 100 µM (inactive)	> 100 µM (inactive)	> 100 µM (inactive)	> 100 µM (inactive)	> 100 µM (inactive)	> 100 µM (inactive)	> 100 µM (inactive)	> 100 µM (inactive)	> 100 µM (inactive)	> 100 µM (inactive)	> 100 µM (inactive)	> 100 µM (inactive)
C=CCN(c1cc(OCc2ccccc2)c2c(c1)c(C)cn2S(=O)(=O)c1ccccc1)S(C)(=O)=O	> 100 µM (inactive)	> 100 µM (inactive)	> 100 µM (inactive)	> 100 µM (inactive)	> 100 µM (inactive)	> 100 µM (inactive)	> 100 µM (inactive)	> 100 µM (inactive)	> 100 µM (inactive)	> 100 µM (inactive)	> 100 µM (inactive)	> 100 µM (inactive)	> 100 µM (inactive)	> 100 µM (inactive)	> 100 µM (inactive)	> 100 µM (inactive)	> 100 µM (inactive)	> 100 µM (inactive)	> 100 µM (inactive)
CCOC(=O)C(O)(C(=O)OCC)c1cc(C(C)(C)C)c(O)c(C(C)(C)C)c1	54.3 µM (inactive)	37.2 µM (inactive)	36.1 µM (inactive)	92 µM (inactive)	35.1 µM (inactive)	> 100 µM (inactive)	34.8 µM (inactive)	53 µM (inactive)	25.8 µM (inactive)	42.2 µM (inactive)	16.4 µM (inactive)	36.9 µM (inactive)	18.6 µM (inactive)	76.6 µM (inactive)	22.5 µM (inactive)	70.3 µM (inactive)	26 µM (inactive)	41 µM (inactive)	22.9 µM (inactive)
CC(C)(C)Nc1noc(=O)n1C(C)(C)C	> 100 µM (inactive)	> 100 µM (inactive)	> 100 µM (inactive)	> 100 µM (inactive)	> 100 µM (inactive)	> 100 µM (inactive)	> 100 µM (inactive)	> 100 µM (inactive)	> 100 µM (inactive)	> 100 µM (inactive)	> 100 µM (inactive)	> 100 µM (inactive)	> 100 µM (inactive)	> 100 µM (inactive)	> 100 µM (inactive)	> 100 µM (inactive)	> 100 µM (inactive)	> 100 µM (inactive)	> 100 µM (inactive)
Nc1ncnc2c1ncn2[C@H]1CC[C@@H](NO)C1	> 100 µM (inactive)	> 100 µM (inactive)	> 100 µM (inactive)	> 100 µM (inactive)	> 100 µM (inactive)	> 100 µM (inactive)	> 100 µM (inactive)	> 100 µM (inactive)	> 100 µM (inactive)	> 100 µM (inactive)	> 100 µM (inactive)	> 100 µM (inactive)	> 100 µM (inactive)	> 100 µM (inactive)	> 100 µM (inactive)	> 100 µM (inactive)	> 100 µM (inactive)	> 100 µM (inactive)	> 100 µM (inactive)
Cc1nc2[nH]ccn2c(=O)c1CCCl	45.5 µM (inactive)	18 µM (inactive)	38.7 µM (inactive)	23.6 µM (inactive)	17 µM (inactive)	23.6 µM (inactive)	20.4 µM (inactive)	38.7 µM (inactive)	14.8 µM (inactive)	25.6 µM (inactive)	> 100 µM (inactive)	20.7 µM (inactive)	26.5 µM (inactive)	25.2 µM (inactive)	31.6 µM (inactive)	26.5 µM (inactive)	57.1 µM (inactive)	20.9 µM (inactive)	24.8 µM (inactive)
